Test results as given in PMC6478789, “A chemical toolbox for the study of bromodomains and epigenetic signaling” (Nature Communications, 2019).

Columns and labels:
C2C12 myoblast cells = assay: Gene-expression analysis (microarray); type: cell-based, mouse; conditions: 12 h; 500 nM (JQ1, LP-99), 2 μM (GSK2801, BAZ2-ICR, BSP)
Procedure: Total RNA was extracted using the PureLink^TM RNA mini kit (Thermo Fisher Scientific, 12183018A) as per the manufacturer’s protocol.
RNA samples were processed for oligonucleotide microarray profiling utilizing the Affymetrix Clariom^TM S Assay HT mouse. Quality controls were carried out in R (v.3.5.1) and Bioconductor[71] (v.3.7) using the arrayQualityMetrics package (v.3.36.0) taking into account array intensity distributions, distance between arrays, and variance mean dependence. Principal component analysis was used to decide which arrays to process together. After quality control, arrays were corrected for background, normalized, and log2-transformed together using the rma function of the oligo package (v.1.44)[73] in R/Bioconductor. Probes with small variance across samples were filtered out using the genefilter (v.1.62) package, employing the nsFilter function and an interquartile range cut-off of 0.28 (or >log(1.2), determined by the midpoint of the shortest interval containing half of the data). This reduced the number of probes of the Clariom^TM S array from 29,129 to 14,538.
Differential expression analysis was conducted using the limma package (v.3.36.2)[74], employing a linear model followed by empirical Bayesian analysis to determine differential expression between not-treated and treated samples.

BRD8(1) = BRD8(1) (Homo sapiens, UniProt Q9H0E9); assay: BROMOscan ligand-binding assay; conditions: KD, BROMOscan Gene Symbol BRD8(1)
Text: (§2) BROMOscan is a binding assay based on the well-known KINOMEscan technology. This assay measures the binding of a DNA-tagged bromodomain to an immobilized BRD ligand. If an inhibitor is present, it will compete with the bromodomain binding to the immobilized ligand, resulting in reduction of a quantitative PCR (qPCR) signal in a dose-dependent manner.

CBP = molecular target: T1, CBP (Homo sapiens, UniProt Q92793); assay: Temperature shift assay (bromodomains); type: binding; conditions: compared to ITC KD
T1 construct: Recombinant protein domains (bromodomain or kinases) at a concentration of 2 μM
Procedure: (§1) Temperature shift assays have been described by Fedorov et al.[46]. Recombinant protein domains (bromodomain or kinases) at a concentration of 2 μM in 10 mM HEPES, pH 7.5, and 500 mM NaCl were mixed with 10 μM of chemical probes. Temperature-dependent protein unfolding profiles were measured using a Real-Time PCR Mx3005p machine (Stratagene).

BRD9 = molecular target: T2, BRD9 (Homo sapiens, UniProt Q9H8M2); assay: Temperature shift assay (bromodomains); type: binding; conditions: compared to ITC KD
T2 construct: purchased DiscoverX BROMOscan (bromodomains); SGC in-house methyltransferase panel
Procedure: as §1

TAF1L(2) = molecular target: T3, TAF1L(2) (Homo sapiens, UniProt Q8IZX4); assay: Temperature shift assay (bromodomains); type: binding; conditions: compared to ITC KD
T3 construct: purchased DiscoverX BROMOscan (bromodomains); SGC in-house methyltransferase panel
Procedure: as §1

BAZ2B = molecular target: T4, BAZ2B (Homo sapiens, UniProt Q9UIF8); assay: BROMOscan ligand-binding assay; conditions: KD, BROMOscan Gene Symbol BAZ2B
T4 sequence (Q9UIF8 2060-2164 limits assumed): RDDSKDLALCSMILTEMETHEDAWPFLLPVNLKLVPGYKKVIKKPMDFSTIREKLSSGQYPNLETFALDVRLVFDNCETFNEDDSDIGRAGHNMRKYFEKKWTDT
Text: as §2

ATAD2A = molecular target: T5, ATAD2A (Homo sapiens, UniProt Q6PL18); assay: BROMOscan ligand-binding assay; conditions: KD, BROMOscan Gene Symbol ATAD2A
T5 sequence (Q6PL18 980-1092 limits assumed): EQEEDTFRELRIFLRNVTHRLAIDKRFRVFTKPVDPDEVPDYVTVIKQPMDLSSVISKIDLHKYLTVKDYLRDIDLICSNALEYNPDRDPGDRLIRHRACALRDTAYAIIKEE
Text: as §2

WDR9(2) = WDR9(2) (Homo sapiens, UniProt Q9NSI6); assay: BROMOscan ligand-binding assay
Text: as §2

ATAD2B = molecular target: T6, ATAD2B (Homo sapiens, UniProt Q9ULI0); assay: BROMOscan ligand-binding assay; conditions: KD, BROMOscan Gene Symbol ATAD2B
T6 sequence (Q9ULI0 951-1066 limits assumed): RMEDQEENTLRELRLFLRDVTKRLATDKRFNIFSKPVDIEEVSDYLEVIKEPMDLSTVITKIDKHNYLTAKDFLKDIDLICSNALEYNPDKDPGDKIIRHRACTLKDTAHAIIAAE
Text: as §2

EP300 = molecular target: T7, EP300 (Homo sapiens, UniProt Q09472); assay: BROMOscan ligand-binding assay; conditions: KD, BROMOscan Gene Symbol EP300
T7 sequence (Q09472 1049-1156 limits assumed): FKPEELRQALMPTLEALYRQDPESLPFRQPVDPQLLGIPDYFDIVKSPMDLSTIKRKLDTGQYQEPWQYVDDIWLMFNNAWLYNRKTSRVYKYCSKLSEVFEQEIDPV
Text: as §2

SMARCA2 = SMARCA2 (Homo sapiens, UniProt P51531); assay: BROMOscan ligand-binding assay; conditions: KD, BROMOscan Gene Symbol SMARCA2
Text: as §2

BAZ1B = molecular target: T8, BAZ1B (Homo sapiens, UniProt Q9UIG0); assay: BROMOscan ligand-binding assay; conditions: KD, BROMOscan Gene Symbol BAZ1B
T8 sequence (Q9UIG0 1339-1443 limits assumed): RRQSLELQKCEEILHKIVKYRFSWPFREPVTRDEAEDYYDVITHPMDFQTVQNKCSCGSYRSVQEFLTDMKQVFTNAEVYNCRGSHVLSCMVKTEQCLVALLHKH
Text: as §2

BRD8(2) = BRD8(2) (Homo sapiens, UniProt Q9H0E9); assay: BROMOscan ligand-binding assay; conditions: KD, BROMOscan Gene Symbol BRD8(2)
Text: as §2

GCN5L2 = molecular target: T9, GCN5L2 (Homo sapiens, UniProt Q92830); assay: BROMOscan ligand-binding assay; conditions: KD, BROMOscan Gene Symbol GCN5L2
T9 sequence (Q92830 728-832 limits assumed): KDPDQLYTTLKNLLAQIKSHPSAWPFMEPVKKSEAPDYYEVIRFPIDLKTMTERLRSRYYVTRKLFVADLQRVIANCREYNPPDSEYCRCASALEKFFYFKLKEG
Text: as §2

SMARCA2(iso.A) = SMARCA2(iso.A) (Homo sapiens, UniProt P51531); assay: BROMOscan ligand-binding assay; conditions: KD, BROMOscan Gene Symbol SMARCA2(iso.A)
Text: as §2

BRPF1 = molecular target: T10, BRPF1 (Homo sapiens, UniProt P55201); assay: BROMOscan ligand-binding assay; conditions: KD, BROMOscan Gene Symbol BRPF1
T10 sequence (P55201 628-732 limits assumed): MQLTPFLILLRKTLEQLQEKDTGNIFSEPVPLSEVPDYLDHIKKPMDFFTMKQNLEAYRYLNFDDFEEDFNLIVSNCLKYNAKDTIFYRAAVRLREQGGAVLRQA
Text: as §2

TRIM33(PHD,BRD) = molecular target: T11, TRIM33(PHD,BRD) (Homo sapiens, UniProt Q9UPN9); assay: BROMOscan ligand-binding assay
T11 sequence (Q9UPN9 882-1087 limits assumed): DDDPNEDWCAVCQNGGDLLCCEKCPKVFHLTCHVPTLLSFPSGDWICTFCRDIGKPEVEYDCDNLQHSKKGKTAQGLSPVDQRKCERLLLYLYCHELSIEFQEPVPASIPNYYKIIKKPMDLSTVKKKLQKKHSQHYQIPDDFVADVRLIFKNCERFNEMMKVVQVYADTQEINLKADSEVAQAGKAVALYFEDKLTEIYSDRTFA
Text: as §2

[1] = KD (BROMOscan), sheet prints no unit (nM)

WDR9(2), sequence (Q9NSI6 1313-1418 limits assumed): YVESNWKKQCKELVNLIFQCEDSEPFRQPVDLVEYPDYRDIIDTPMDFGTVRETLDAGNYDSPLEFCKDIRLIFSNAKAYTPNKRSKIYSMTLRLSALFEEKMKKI
BRD8(1), sequence (Q9H0E9 706-811 limits assumed): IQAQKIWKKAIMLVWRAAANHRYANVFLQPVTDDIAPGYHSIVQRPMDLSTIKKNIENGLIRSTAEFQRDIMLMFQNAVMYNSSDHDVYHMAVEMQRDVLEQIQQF
T1 sequence (Q92793 1085-1192 limits assumed): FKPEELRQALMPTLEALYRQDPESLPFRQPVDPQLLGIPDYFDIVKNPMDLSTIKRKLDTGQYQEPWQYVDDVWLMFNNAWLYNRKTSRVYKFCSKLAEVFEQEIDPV
T2 sequence (Q9H8M2 134-239): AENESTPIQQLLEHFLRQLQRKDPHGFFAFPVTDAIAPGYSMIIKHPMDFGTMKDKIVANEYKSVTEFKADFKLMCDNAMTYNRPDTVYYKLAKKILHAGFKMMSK
T3 sequence (Q8IZX4 1523-1654 limits assumed): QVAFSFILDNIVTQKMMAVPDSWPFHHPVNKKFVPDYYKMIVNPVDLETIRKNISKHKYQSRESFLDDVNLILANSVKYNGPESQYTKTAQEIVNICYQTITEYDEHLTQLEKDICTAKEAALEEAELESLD
SMARCA2, sequence (P51531 1-1572 isoform P51531-2): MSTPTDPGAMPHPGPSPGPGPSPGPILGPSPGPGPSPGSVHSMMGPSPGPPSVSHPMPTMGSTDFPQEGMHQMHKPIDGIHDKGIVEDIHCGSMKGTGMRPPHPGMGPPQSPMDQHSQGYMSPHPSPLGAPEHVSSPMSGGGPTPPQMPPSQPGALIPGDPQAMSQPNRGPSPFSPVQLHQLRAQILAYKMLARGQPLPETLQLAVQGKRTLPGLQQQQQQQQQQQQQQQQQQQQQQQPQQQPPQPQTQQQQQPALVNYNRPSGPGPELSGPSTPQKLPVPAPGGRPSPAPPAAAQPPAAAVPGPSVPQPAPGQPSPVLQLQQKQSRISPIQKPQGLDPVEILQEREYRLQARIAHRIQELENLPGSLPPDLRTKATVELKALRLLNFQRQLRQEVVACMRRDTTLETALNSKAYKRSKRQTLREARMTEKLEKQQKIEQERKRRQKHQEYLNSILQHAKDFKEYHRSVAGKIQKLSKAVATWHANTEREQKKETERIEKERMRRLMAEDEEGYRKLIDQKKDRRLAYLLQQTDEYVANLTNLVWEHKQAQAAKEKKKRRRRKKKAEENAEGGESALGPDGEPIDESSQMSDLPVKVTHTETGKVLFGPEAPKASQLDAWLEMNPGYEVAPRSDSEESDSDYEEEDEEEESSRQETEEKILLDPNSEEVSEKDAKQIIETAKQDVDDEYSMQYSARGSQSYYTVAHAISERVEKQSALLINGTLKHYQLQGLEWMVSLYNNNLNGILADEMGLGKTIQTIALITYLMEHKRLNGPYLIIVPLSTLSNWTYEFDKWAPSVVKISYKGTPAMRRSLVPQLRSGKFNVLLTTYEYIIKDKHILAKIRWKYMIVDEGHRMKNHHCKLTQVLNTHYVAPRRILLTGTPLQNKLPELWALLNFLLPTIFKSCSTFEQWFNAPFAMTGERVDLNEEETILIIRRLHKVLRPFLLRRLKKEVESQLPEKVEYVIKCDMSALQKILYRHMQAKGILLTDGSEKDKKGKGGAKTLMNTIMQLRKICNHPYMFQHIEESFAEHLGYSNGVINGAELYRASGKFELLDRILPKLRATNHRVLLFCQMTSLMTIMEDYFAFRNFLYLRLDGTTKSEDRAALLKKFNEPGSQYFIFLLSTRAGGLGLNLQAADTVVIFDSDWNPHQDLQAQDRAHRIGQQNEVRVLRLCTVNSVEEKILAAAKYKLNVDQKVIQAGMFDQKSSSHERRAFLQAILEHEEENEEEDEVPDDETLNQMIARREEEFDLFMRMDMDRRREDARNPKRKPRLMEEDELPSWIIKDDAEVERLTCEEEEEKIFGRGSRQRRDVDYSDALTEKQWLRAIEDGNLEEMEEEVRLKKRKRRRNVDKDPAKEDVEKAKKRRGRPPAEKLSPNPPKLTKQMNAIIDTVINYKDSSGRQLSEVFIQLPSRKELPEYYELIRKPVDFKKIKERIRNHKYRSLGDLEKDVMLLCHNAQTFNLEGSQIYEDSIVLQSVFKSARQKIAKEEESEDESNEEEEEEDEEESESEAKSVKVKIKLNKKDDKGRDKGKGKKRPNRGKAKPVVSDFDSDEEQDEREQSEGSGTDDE
SMARCA2(iso.A), sequence (P51531 1378-1506 limits assumed): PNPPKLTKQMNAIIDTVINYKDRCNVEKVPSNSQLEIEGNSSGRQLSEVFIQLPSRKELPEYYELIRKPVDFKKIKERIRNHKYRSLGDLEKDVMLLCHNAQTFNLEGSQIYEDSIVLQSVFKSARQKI
BRD8(2), sequence (Q9H0E9 1099-1207 limits assumed): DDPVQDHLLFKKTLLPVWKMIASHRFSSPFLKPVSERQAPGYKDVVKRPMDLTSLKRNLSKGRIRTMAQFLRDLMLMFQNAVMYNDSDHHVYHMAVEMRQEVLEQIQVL

Kd (BRD8(1)): 28 µM | ΔTm (CBP): relatively large ΔTm | ΔTm (BRD9): only modest ΔTm | ΔTm (TAF1L(2)): only modest ΔTm | Kd (BAZ2B): 9.1 µM | Kd (ATAD2A): 62 µM | Kd (WDR9(2); [1]): > 30000 nM | Kd (WDR9(2); KD, BROMOscan Gene Symbol WDR9(2)): > 50000 nM | Kd (ATAD2B): 30 µM | Kd (EP300): 1600 nM | Kd (SMARCA2): 4.6 µM | Kd (BAZ1B): 38 µM | Kd (BRD8(2)): 40 µM | Kd (GCN5L2): 12 µM | Kd (SMARCA2(iso.A)): 6.2 µM | Kd (BRPF1): 600 nM | Kd (TRIM33(PHD,BRD); [1]): > 30000 nM | Kd (TRIM33(PHD,BRD); KD, BROMOscan Gene Symbol TRIM33(PHD,Bromo.)): > 50000 nM
SMILES: CCOC(=O)Nc1cc(-c2ccc(C)c(NS(C)(=O)=O)c2)nn2c(C)nnc12 [Bromosporine]
changes in gene-expression levels (C2C12 myoblast cells): significant changes in gene-expression levels
